From ChEMBL document CHEMBL1157522 (Bioorg Med Chem Lett, 2008)
Active and inactive are the calls of the source. The rule behind the calls is not given here.

Key:
[1] = molecular target: Plasminogen (Homo sapiens) (UniProt P00747); test: Inhibition of human plasmin
[2] = molecular target: Plasma kallikrein (Homo sapiens) (UniProt P03952); test: Inhibition of human plasma kallikrein; type: cell-free
[3] = molecular target: Vitamin K-dependent protein C (Homo sapiens) (UniProt P04070); test: Inhibition of human activated protein C
Sequence of Vitamin K-dependent protein C (Homo sapiens) (P04070 43-197 limits assumed): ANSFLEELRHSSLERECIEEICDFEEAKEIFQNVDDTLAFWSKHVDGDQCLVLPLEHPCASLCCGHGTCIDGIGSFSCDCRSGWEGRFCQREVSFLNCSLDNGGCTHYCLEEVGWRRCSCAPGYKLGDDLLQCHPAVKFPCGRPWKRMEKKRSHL
Sequence of Vitamin K-dependent protein C (Homo sapiens) (P04070 212-461 limits assumed): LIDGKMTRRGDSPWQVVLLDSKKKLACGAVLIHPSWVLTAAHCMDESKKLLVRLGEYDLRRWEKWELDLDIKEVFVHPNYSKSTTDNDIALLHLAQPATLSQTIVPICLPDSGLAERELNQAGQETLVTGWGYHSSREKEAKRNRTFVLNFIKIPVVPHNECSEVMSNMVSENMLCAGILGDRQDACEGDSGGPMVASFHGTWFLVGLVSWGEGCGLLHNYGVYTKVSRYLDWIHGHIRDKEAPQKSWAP

[4] = molecular target: T1, Coagulation factor VII (Homo sapiens) (UniProt P08709); test: Inhibition of human factor 7a
T1 sequence (whole entry): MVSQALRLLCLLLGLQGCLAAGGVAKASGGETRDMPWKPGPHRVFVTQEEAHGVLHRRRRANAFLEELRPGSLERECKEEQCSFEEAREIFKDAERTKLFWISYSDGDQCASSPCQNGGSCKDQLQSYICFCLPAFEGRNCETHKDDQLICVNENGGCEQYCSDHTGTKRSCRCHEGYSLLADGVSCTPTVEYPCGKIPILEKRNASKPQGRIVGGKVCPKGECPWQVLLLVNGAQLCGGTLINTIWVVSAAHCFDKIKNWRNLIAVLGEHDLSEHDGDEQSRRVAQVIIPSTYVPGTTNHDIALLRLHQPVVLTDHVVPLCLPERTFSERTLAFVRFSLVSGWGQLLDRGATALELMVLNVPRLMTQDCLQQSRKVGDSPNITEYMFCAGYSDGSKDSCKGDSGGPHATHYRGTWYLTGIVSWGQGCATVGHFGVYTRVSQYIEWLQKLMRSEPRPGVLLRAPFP

[5] = molecular target: Coagulation factor IX (Homo sapiens) (UniProt P00740); test: Inhibition of human factor 9a
Sequence of Coagulation factor IX (Homo sapiens) (P00740 47-191 limits assumed): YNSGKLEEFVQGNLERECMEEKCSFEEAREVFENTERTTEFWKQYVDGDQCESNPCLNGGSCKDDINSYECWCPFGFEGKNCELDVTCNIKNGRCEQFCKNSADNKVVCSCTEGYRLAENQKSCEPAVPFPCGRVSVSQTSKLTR
Sequence of Coagulation factor IX (Homo sapiens) (P00740 227-461 limits assumed): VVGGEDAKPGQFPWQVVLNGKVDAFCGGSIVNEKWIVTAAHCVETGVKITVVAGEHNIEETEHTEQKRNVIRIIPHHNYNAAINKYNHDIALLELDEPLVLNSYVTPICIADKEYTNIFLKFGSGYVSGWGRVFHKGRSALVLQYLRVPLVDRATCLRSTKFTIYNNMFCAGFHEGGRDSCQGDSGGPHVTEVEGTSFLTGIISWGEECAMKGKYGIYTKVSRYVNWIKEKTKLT

Coagulation factor X = Coagulation factor X (Homo sapiens, UniProt P00742); test: Inhibition of human factor 10a
Sequence of Coagulation factor X (P00742 41-179 limits assumed): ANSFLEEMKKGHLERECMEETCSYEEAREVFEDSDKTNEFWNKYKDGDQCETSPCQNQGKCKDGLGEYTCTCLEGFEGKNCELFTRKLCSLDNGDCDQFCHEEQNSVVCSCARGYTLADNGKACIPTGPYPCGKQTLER
Sequence of Coagulation factor X (P00742 235-488 limits assumed): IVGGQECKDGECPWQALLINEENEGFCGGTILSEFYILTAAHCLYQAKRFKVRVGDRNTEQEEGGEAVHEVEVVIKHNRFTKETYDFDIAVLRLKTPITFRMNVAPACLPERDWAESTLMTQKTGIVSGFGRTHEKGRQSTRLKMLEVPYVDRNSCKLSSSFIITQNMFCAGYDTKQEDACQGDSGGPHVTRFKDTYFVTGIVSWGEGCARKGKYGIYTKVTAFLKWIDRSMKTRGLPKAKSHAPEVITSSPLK

Homo sapiens = organism: Homo sapiens; test: Inhibition of human chymotrypsin
Trypsin (Homo sapiens) = Trypsin (Homo sapiens) (UniProt P07477+P07478+P35030); test: Inhibition of human trypsin; type: protein assay
[6] = molecular target: Tissue-type plasminogen activator (Homo sapiens) (UniProt P00750); test: Inhibition of human tPA
Sequence of Tissue-type plasminogen activator (Homo sapiens) (P00750 36-562 limits assumed): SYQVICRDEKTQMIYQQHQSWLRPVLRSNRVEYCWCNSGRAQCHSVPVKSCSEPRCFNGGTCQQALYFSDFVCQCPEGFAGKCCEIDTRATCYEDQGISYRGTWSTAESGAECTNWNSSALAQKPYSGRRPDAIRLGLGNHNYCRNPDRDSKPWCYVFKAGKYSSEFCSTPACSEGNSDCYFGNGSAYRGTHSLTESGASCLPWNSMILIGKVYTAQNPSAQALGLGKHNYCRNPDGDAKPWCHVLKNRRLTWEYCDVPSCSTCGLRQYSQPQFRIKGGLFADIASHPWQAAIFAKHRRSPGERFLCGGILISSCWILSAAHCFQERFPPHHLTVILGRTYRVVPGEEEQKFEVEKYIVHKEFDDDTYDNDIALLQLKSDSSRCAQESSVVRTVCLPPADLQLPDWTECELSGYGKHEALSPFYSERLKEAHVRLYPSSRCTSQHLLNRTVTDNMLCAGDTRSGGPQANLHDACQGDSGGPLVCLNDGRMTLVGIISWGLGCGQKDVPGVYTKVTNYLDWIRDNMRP

Sequence of Plasma kallikrein (Homo sapiens) (P03952 20-390 limits assumed): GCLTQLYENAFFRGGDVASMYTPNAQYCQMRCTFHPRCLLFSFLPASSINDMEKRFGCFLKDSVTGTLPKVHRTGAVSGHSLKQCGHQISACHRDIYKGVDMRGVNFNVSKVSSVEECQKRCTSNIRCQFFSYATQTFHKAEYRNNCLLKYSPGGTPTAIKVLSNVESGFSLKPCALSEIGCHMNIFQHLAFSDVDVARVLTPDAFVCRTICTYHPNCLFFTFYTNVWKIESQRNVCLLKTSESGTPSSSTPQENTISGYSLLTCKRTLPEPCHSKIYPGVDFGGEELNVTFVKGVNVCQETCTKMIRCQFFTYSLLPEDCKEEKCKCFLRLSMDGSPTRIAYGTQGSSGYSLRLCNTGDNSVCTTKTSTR
Sequence of Plasma kallikrein (Homo sapiens) (P03952 391-638 limits assumed): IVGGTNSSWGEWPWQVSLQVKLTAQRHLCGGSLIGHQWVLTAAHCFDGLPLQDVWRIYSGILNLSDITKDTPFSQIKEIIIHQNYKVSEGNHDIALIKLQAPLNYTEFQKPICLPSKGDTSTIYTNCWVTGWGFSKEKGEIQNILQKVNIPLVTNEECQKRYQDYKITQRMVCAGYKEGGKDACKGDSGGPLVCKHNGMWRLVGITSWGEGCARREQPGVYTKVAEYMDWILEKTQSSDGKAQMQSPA
Sequence of Plasminogen (Homo sapiens) (P00747 97-580 limits assumed): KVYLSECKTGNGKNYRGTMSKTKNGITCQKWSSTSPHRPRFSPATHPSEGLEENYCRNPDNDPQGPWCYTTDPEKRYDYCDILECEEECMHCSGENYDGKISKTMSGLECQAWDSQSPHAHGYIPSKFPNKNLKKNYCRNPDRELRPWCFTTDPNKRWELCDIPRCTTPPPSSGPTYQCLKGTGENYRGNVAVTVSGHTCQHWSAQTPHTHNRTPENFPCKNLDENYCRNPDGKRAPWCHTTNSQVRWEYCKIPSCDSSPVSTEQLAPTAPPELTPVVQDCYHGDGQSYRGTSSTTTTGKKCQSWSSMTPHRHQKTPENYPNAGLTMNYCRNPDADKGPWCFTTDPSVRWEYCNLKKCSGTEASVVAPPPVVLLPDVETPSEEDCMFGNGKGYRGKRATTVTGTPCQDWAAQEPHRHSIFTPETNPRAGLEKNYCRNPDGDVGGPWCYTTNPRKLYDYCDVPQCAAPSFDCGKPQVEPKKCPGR
Sequence of Plasminogen (Homo sapiens) (P00747 581-810 limits assumed): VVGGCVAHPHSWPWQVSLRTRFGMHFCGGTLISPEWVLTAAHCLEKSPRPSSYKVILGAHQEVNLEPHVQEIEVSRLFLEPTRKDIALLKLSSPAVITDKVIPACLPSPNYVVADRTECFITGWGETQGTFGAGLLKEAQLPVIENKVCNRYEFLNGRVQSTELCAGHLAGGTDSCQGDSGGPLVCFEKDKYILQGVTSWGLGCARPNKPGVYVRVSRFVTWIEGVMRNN

| SMILES | Activity [1] | Activity [2] | Activity [3] | Activity [4] | Activity [5] | Ki (Coagulation factor X) [nM] | Activity (Homo sapiens) | Activity (Trypsin (Homo sapiens)) | Activity [6] |
| --- | --- | --- | --- | --- | --- | --- | --- | --- | --- |
| COc1ccc(-n2nc(C(F)(F)F)c3c2C(=O)N(c2ccc(C4(CN)CC4)cc2)CC3)cc1 | inactive | inactive | inactive | inactive | inactive | 0.57 | inactive | inactive | inactive |
| COc1ccc(-n2nc(C(F)(F)F)c3c2C(=O)N(c2ccc(C4(CNC5CCCC5)CC4)cc2)CC3)cc1 | inactive | inactive | inactive | inactive | inactive | 0.12 | inactive | inactive | inactive |
| COc1ccc(-n2nc(C(F)(F)F)c3c2C(=O)N(c2ccc(-c4ccccc4CNC(C)C)cc2)CC3)cc1 | – | – | – | – | – | 1.4 | – | – | – |
| COc1ccc(-n2nc(C(F)(F)F)c3c2C(=O)N(c2ccc(C4(C(=O)N5CCCC5)CC4)cc2)CC3)cc1 | inactive | inactive | inactive | inactive | inactive | 169 | inactive | inactive | inactive |
| COc1ccc(-n2nc(C(F)(F)F)c3c2C(=O)N(c2ccc(C4(CO)CC4)cc2)CC3)cc1 | inactive | inactive | inactive | inactive | inactive | 2.4 | inactive | inactive | inactive |
| CCNC(=O)N(C)CC1(c2ccc(N3CCc4c(C(F)(F)F)nn(-c5ccc(OC)cc5)c4C3=O)cc2)CC1 | inactive | inactive | inactive | inactive | inactive | 0.14 | inactive | inactive | inactive |
| COc1ccc(-n2nc(C(F)(F)F)c3c2C(=O)N(c2ccc(C4(Cn5ccnc5C)CC4)cc2)CC3)cc1 | inactive | inactive | inactive | inactive | inactive | – | inactive | inactive | inactive |
| COCC1(c2ccc(N3CCc4c(C(F)(F)F)nn(-c5ccc(OC)cc5)c4C3=O)cc2)CC1 | inactive | inactive | inactive | inactive | inactive | 1.6 | inactive | inactive | inactive |
| CNCc1ccccc1-c1ccc(N2CCc3c(C(N)=O)nn(-c4ccc(OC)cc4)c3C2=O)cc1 | – | – | – | – | – | 0.15 | – | – | – |
| COc1ccc(-n2nc(C(F)(F)F)c3c2C(=O)N(c2ccc(C4(C(=O)Nc5nncs5)CC4)cc2)CC3)cc1 | inactive | inactive | inactive | inactive | inactive | 1.8 | inactive | inactive | inactive |
| COC(=O)C1(c2ccc(N3CCc4c(C(F)(F)F)nn(-c5ccc(OC)cc5)c4C3=O)cc2)CC1 | inactive | inactive | inactive | inactive | inactive | – | inactive | inactive | inactive |
| COc1ccc(-n2nc(C(F)(F)F)c3c2C(=O)N(c2ccc(C4(C(=O)N5CCC(O)CC5)CC4)cc2)CC3)cc1 | inactive | inactive | inactive | inactive | inactive | 54 | inactive | inactive | inactive |
| COc1ccc(-n2nc(C(F)(F)F)c3c2C(=O)N(c2ccc(C4(C(=O)N(C)C)CC4)cc2)CC3)cc1 | inactive | inactive | inactive | inactive | inactive | 5.8 | inactive | inactive | inactive |
| COc1ccc(-n2nc(C(F)(F)F)c3c2C(=O)N(c2ccc(C4(CN5CCC(O)CC5)CC4)cc2)CC3)cc1 | inactive | inactive | inactive | inactive | inactive | 0.14 | inactive | inactive | inactive |
| COc1ccc(-n2nc(C(F)(F)F)c3c2C(=O)N(c2ccc(C4(C(=O)NC5CCCC5)CC4)cc2)CC3)cc1 | inactive | inactive | inactive | inactive | inactive | 30 | inactive | inactive | inactive |
| COc1ccc(-n2nc(C(F)(F)F)c3c2C(=O)N(c2ccc(C4(CNc5nccs5)CC4)cc2)CC3)cc1 | inactive | inactive | inactive | inactive | inactive | 0.054 | inactive | inactive | inactive |
| COc1ccc(-n2nc(C(F)(F)F)c3c2C(=O)N(c2ccc(-c4ccccc4CN(C)C)cc2)CC3)cc1 | – | – | – | – | – | 0.3 | – | – | – |
| CCN(CC)CC1(c2ccc(N3CCc4c(C(F)(F)F)nn(-c5ccc(OC)cc5)c4C3=O)cc2)CC1 | inactive | inactive | inactive | inactive | inactive | < 0.02 | inactive | inactive | inactive |
| COc1ccc(-n2nc(C(F)(F)F)c3c2C(=O)N(c2ccc(C4(CN(C)S(C)(=O)=O)CC4)cc2)CC3)cc1 | inactive | inactive | inactive | inactive | inactive | 0.074 | inactive | inactive | inactive |
| COc1ccc(-n2nc(C(F)(F)F)c3c2C(=O)N(c2ccc(C4(CNC(C)C)CC4)cc2)CC3)cc1 | inactive | inactive | inactive | inactive | inactive | 0.042 | inactive | inactive | inactive |
| COc1ccc(-n2nc(C(F)(F)F)c3c2C(=O)N(c2ccc(C4(C(=O)Nc5nnn[nH]5)CC4)cc2)CC3)cc1 | inactive | inactive | inactive | inactive | inactive | 3 | inactive | inactive | inactive |
| COc1ccc(-n2nc(C(F)(F)F)c3c2C(=O)N(c2ccc(C4(CN5CCOCC5)CC4)cc2)CC3)cc1 | inactive | inactive | inactive | inactive | inactive | – | inactive | inactive | inactive |
| COc1ccc(-n2nc(C(F)(F)F)c3c2C(=O)N(c2ccc(C4(CN(C)C(C)=O)CC4)cc2)CC3)cc1 | inactive | inactive | inactive | inactive | inactive | 0.055 | inactive | inactive | inactive |
| COc1ccc(-n2nc(C(F)(F)F)c3c2C(=O)N(c2ccc(C4(CN5CC[C@@H](O)C5)CC4)cc2)CC3)cc1 | inactive | inactive | inactive | inactive | inactive | 0.038 | inactive | inactive | inactive |
| CNCc1ccccc1-c1ccc(N2CCc3c(C(F)(F)F)nn(-c4ccc(OC)cc4)c3C2=O)cc1 | – | – | – | – | – | 0.28 | – | – | – |
| CNCC1(c2ccc(N3CCc4c(C(F)(F)F)nn(-c5ccc(OC)cc5)c4C3=O)cc2)CC1 | inactive | inactive | inactive | inactive | inactive | – | inactive | inactive | inactive |
